According to patent US12370235B2, “Synthetic, non-natural antimicrobial peptides inspired by Staphylococcus auricularis delta toxin” (University of Saskatchewan, priority 2021, dated 2025):
In brackets after ≈: the same amount, converted by molar mass. Square brackets hold non-standard residues; d marks the D form. Ends that are not written are not given here. Peptide text beside a SMILES is read from it. Orn = NCCC[C@H](N)C(=O)O

What was measured:
[1] = system: Candida haemulonii AR 393; assay: MIC, YPD broth, CDC and FDA AR Candida isolate panel; assay type: cell-based; settings: Table 9 below the line: only 200 or 100 μg/mL tested; values reported as 100 are ≤100 μg/mL
Protocol: (§1) MIC determination. MICs were measured using peptides with 95% purity. For bacterial studies, cation-adjusted Mueller Hinton (MH) broth was used as the growth medium whereas Yeast Peptone Dextrose (YPD; 10 g/L yeast extract, 20 g/L peptone, 20 g/L dextrose) was used for Candida spp. and other yeast. Microorganisms were diluted to an optical density of […] in MH or YPD broth and a 180 μl volume was mixed with 20 μl of peptide arrayed as a 2-fold dilution series in a flat-bottom 96-well microtitre plate. A control was performed using 20 μl of sterile water. Plates were incubated as standing cultures overnight at 37° C.

[2] = system: Candida duobushaemulonii AR 391; assay: as above; assay type: cell-based; settings: Table 9 below the line: only 200 or 100 μg/mL tested; values reported as 100 are ≤100 μg/mL
Protocol: as §1

[3] = system: Candida duobushaemulonii AR 394; assay: as above; assay type: cell-based; settings: Table 9 below the line: only 200 or 100 μg/mL tested; values reported as 100 are ≤100 μg/mL
Protocol: as §1

Candida krusei AR 397 = assay: as above; assay type: cell-based; settings: Table 9 below the line: only 200 or 100 μg/mL tested; values reported as 100 are ≤100 μg/mL
Protocol: as §1

[4] = system: Candida lusitaniae AR 398; assay: as above; assay type: cell-based; settings: Table 9 below the line: only 200 or 100 μg/mL tested; values reported as 100 are ≤100 μg/mL
Protocol: as §1

Kodamae ohmeri AR 396 = assay: as above; assay type: cell-based; settings: Table 9 below the line: only 200 or 100 μg/mL tested; values reported as 100 are ≤100 μg/mL
Protocol: as §1

[5] = system: Saccharomyces cerevisiae AR 399; assay: as above; assay type: cell-based; settings: Table 9 below the line: only 200 or 100 μg/mL tested; values reported as 100 are ≤100 μg/mL
Protocol: as §1

[6] = system: Candida haemulonii AR 395; assay: as above; assay type: cell-based; settings: Table 9 below the line: only 200 or 100 μg/mL tested; values reported as 100 are ≤100 μg/mL
Protocol: as §1

[7] = system: Saccharomyces cerevisiae AR 400; assay: as above; assay type: cell-based; settings: Table 9 below the line: only 200 or 100 μg/mL tested; values reported as 100 are ≤100 μg/mL
Protocol: as §1

[8] = system: Candida duobushaemulonii AR 392; assay: as above; assay type: cell-based; settings: Table 9 below the line: only 200 or 100 μg/mL tested; values reported as 100 are ≤100 μg/mL
Protocol: as §1

[9] = system: S. aureus ATCC BAA-2313 (MRSA SCCmec type XI); assay: MIC, broth dilution; assay type: cell-based, Staphylococcus aureus; settings: Table 5; STIP3 variants, highest concentration 100 μg/mL
Protocol: as §1
(§2) Determination of minimum inhibitory concentrations. The MICs were measured for bioactive peptides identified from the initial screen. For bacterial studies, cation-adjusted Mueller Hinton (MH) broth was used as the growth medium whereas YPD was used for C. albicans. Bacterial cultures were diluted to a OD value of 6×10^−4 in MH broth and a 180 μl volume was mixed with 20 μl of peptide arrayed as 2-fold dilution series in a 96-well plate. For the positive control, 20 μl of sterile water was used. Plates were incubated as standing cultures overnight at 37° C. The lowest peptide concentration that resulted no observed microbial growth after an overnight treatment was defined as the MIC.

[10] = system: S. aureus ATCC 33592 (MRSA SCCmec type III); assay: MIC, broth dilution; assay type: cell-based, Staphylococcus aureus; settings: Table 5; STIP3 variants, highest concentration 100 μg/mL
Protocol: as §1, §2

[11] = system: S. aureus ATCC BAA-1683 (MRSA SCCmec type IV); assay: MIC, broth dilution; assay type: cell-based, Staphylococcus aureus; settings: Table 5; STIP3 variants, highest concentration 100 μg/mL
Protocol: as §1, §2

[12] = system: S. aureus ATCC BAA-42 (MRSA SCCmec type VI); assay: MIC, broth dilution; assay type: cell-based, Staphylococcus aureus; settings: Table 5; STIP3 variants, highest concentration 100 μg/mL
Protocol: as §1, §2

[13] = system: S. aureus ATCC BAA-44 (MRSA SCCmec type I); assay: MIC, broth dilution; assay type: cell-based, Staphylococcus aureus; settings: Table 5; STIP3 variants, highest concentration 100 μg/mL
Protocol: as §1, §2

[14] = system: S. aureus ATCC BAA-41 (MRSA SCCmec type II); assay: MIC, broth dilution; assay type: cell-based, Staphylococcus aureus; settings: Table 5; STIP3 variants, highest concentration 100 μg/mL
Protocol: as §1, §2

S. aureus ATCC 29213 = assay: MIC, broth dilution; assay type: cell-based, Staphylococcus aureus; settings: Table 5; STIP3 variants, highest concentration 100 μg/mL
Protocol: as §1, §2

[15] = system: S. aureus ATCC BAA-2094 (MRSA SCCmec type V); assay: MIC, broth dilution; assay type: cell-based, Staphylococcus aureus; settings: Table 5; STIP3 variants, highest concentration 100 μg/mL
Protocol: as §1, §2

[16] = system: Mannheimia haemolytica ATCC 33393; assay: MIC, broth dilution; assay type: cell-based; settings: Table 11; highest concentration 25 μg/mL
Protocol: as §1, §2
The ability of STIP3 variants to inhibit the growth of Mannheimia haemolytica ATCC 33393 was evaluated. This included an alanine scan of STIP3-1 (FIG. 8 & Table 10) as well as 30 rationally-designed STIPs that were evaluated in the preceding Examples against other pathogens (Table 11). Substitutions at a greater number of sites were tolerated in the context of antimicrobial activity. Moreover, the inclusion of basic natural and unnatural amino acids (e.g. lysine, ornithine, and arginine) at positions 3, 4 and 11 (i.e. X1, X2, and X4 of SEQ ID NO: 32) to afford a more uniformly cationic peptide increased activity against M. haemolytica.

C. albicans MYA-2876 = assay: MIC, YPD broth; assay type: cell-based, Candida albicans; settings: Table 8
Protocol: as §1, §2

Molecule | MIC (μg/mL) Candida haemulonii AR 393 [1] | MIC (μg/mL) Candida duobushaemulonii AR 391 [2] | MIC (μg/mL) Candida duobushaemulonii AR 394 [3] | MIC (μg/mL) Candida krusei AR 397 (Candida krusei AR 397) | MIC (μg/mL) Candida lusitaniae AR 398 [4] | MIC (μg/mL) Kodamae ohmeri AR 396 (Kodamae ohmeri AR 396) | MIC (μg/mL) Saccharomyces cerevisiae AR 399 [5] | MIC (μg/mL) Candida haemulonii AR 395 [6] | MIC (μg/mL) Saccharomyces cerevisiae AR 400 [7] | MIC (μg/mL) Candida duobushaemulonii AR 392 [8] | MIC S. aureus ATCC BAA 2313 (XI) [9] | MIC S. aureus ATCC 33592 (III) [10] | MIC S. aureus ATCC BAA 1683 (IV) [11] | MIC S. aureus ATCC BAA 42 (VI) [12] | MIC S. aureus ATCC BAA 44 (I) [13] | MIC S. aureus ATCC BAA 41 (II) [14] | MIC S. aureus ATCC 29213 (S. aureus ATCC 29213) | MIC S. aureus ATCC BAA 2094 (V) [15] | MIC (μg/mL) M. haemolytica [16] | MIC C. albicans MYA-2876 (C. albicans MYA-2876)
CC[C@H](C)[C@H](NC(=O)[C@H](Cc1c[nH]c2ccccc12)NC(=O)[C@H](CCCN)NC(=O)[C@@H](NC(=O)[C@H](CC(C)C)NC(=O)[C@H](C)NC(=O)[C@H](CCCN)NC(=O)[C@@H](NC(=O)[C@@H](N)[C@@H](C)O)C(C)C)C(C)C)C(=O)N[C@@H](CC(C)C)C(=O)N[C@@H](CCCN)C(=O)N[C@H](C(=O)N[C@H](C(=O)N[C@@H](C)C(=O)N[C@@H](CCCN)C(=O)N[C@@H](Cc1ccccc1)C(=O)N[C@@H](C)C(=O)O)C(C)C)[C@@H](C)O [STIP3-22, TVXALVXWILXTVAXFA] (H-TV[Orn]ALV[Orn]WIL[Orn]TVA[Orn]FA-OH; N-terminus and C-terminus assumed) | > (values below the line were determined using two concentrations of peptide 200 or 100 μg/mL) | > (values below the line were determined using two concentrations of peptide 200 or 100 μg/mL) | > (values below the line were determined using two concentrations of peptide 200 or 100 μg/mL) | ≤ 100 µg/mL | ≤ 100 µg/mL | > (values below the line were determined using two concentrations of peptide 200 or 100 μg/mL) | ≤ 100 µg/mL | > (values below the line were determined using two concentrations of peptide 200 or 100 μg/mL) | ≤ 100 µg/mL | > (values below the line were determined using two concentrations of peptide 200 or 100 μg/mL) | 100 µg/mL (≈ 53.8 µM) | 25 µg/mL (≈ 13.4 µM) | 25 µg/mL (≈ 13.4 µM) | 25 µg/mL (≈ 13.4 µM) | 25 µg/mL (≈ 13.4 µM) | 25 µg/mL (≈ 13.4 µM) | 25 µg/mL (≈ 13.4 µM) | 25 µg/mL (≈ 13.4 µM) | 6.25 µg/mL (≈ 3.36 µM) | > (> symbol indicates that no inhibition was observed at the highest concentration of peptide tested: 100 μg/mL)
TVAGLVKWILATVKKFA [STIP3-15, TVAGLVKWILATVKKFA] | > (values below the line were determined using two concentrations of peptide 200 or 100 μg/mL) | > (values below the line were determined using two concentrations of peptide 200 or 100 μg/mL) | > (values below the line were determined using two concentrations of peptide 200 or 100 μg/mL) | ≤ 100 µg/mL | ≤ 100 µg/mL | ≤ 100 µg/mL | ≤ 100 µg/mL | > (values below the line were determined using two concentrations of peptide 200 or 100 μg/mL) | ≤ 100 µg/mL | > (values below the line were determined using two concentrations of peptide 200 or 100 μg/mL) | 50 µg/mL | 12.5 µg/mL | 25 µg/mL | 50 µg/mL | 25 µg/mL | 50 µg/mL | 25 µg/mL | 25 µg/mL | 25 µg/mL | 25 µg/mL
TVDGLVKWILATVKKFA [STIP3-17, TVDGLVKWILATVKKFA] | > (values below the line were determined using two concentrations of peptide 200 or 100 μg/mL) | > (values below the line were determined using two concentrations of peptide 200 or 100 μg/mL) | > (values below the line were determined using two concentrations of peptide 200 or 100 μg/mL) | ≤ 100 µg/mL | ≤ 100 µg/mL | > (values below the line were determined using two concentrations of peptide 200 or 100 μg/mL) | ≤ 100 µg/mL | > (values below the line were determined using two concentrations of peptide 200 or 100 μg/mL) | ≤ 100 µg/mL | > (values below the line were determined using two concentrations of peptide 200 or 100 μg/mL) | > (no inhibition was observed at the highest concentration of peptide tested: 100 μg/mL for the STIP3 variants) | > (no inhibition was observed at the highest concentration of peptide tested: 100 μg/mL for the STIP3 variants) | > (no inhibition was observed at the highest concentration of peptide tested: 100 μg/mL for the STIP3 variants) | > (no inhibition was observed at the highest concentration of peptide tested: 100 μg/mL for the STIP3 variants) | > (no inhibition was observed at the highest concentration of peptide tested: 100 μg/mL for the STIP3 variants) | > (no inhibition was observed at the highest concentration of peptide tested: 100 μg/mL for the STIP3 variants) | > (no inhibition was observed at the highest concentration of peptide tested: 100 μg/mL for the STIP3 variants) | > (no inhibition was observed at the highest concentration of peptide tested: 100 μg/mL for the STIP3 variants) | > (> symbol indicates that no inhibition was observed at the highest concentration of peptide tested: 25 μg/mL) | 12.5 µg/mL
